Assay results: patent US20240287082A1, “NEW BENZODIAZEPINE DERIVATIVES AS GABA A GAMMA1 PAM” (Hoffmann-La Roche Inc., priority 2021, published 2024)
Where two headings read alike, the source gives them in different places.

Key:
[1] = target: h-GABA-A α2β2γ1 (Homo sapiens (Human), UniProt P47869+Q8N1C3); assay: Two-electrode voltage clamp electrophysiology in Xenopus oocytes expressing GABAA receptors, modulation of GABA EC20 current; format: cell-based; conditions: for Efficacy (GABA) %: % modulation of GABA EC20 = 100*(Fold increase−1), compound at 30-fold Ki α2β2γ1; for Fold increase h-GABA-A α2β2γ1 oocyte @ 30-fold Ki: Xenopus oocytes, GABA EC20, test compound at approx. 30-fold its Ki α2β2γ1
[2] = target: human GABAA α5β2γ1 receptor (Homo sapiens (Human), UniProt P31644+Q8N1C3); assay: Radioligand binding assay, competition for [3H]RO7239181, γ1-containing GABAA subtype α5β2γ1
[3] = membranes of HEK293F cells, [3H]RO7239181 1.5 nM, mean of two determinations, read-out: Ki h-GABAA α5β2γ1

For `CCc1cn2c(nc1=O)[C@H](C)N=C(c1c(F)cccc1F)c1c-2ccc(C(F)(F)F)c1Cl` [Example 11, (5S)-8-chloro-7-(2,6-difluorophenyl)-2-ethyl-5-methyl-9-(trifluoromethyl)-5H-pyrimido[1,2-a][1,4]benzodiazepin-3-one], the “Efficacy (GABA) %” value [1] was 70%, the “Fold increase h-GABA-A α2β2γ1 oocyte @ 30-fold Ki” value [1] was 1.7 and the Ki [2] was 4.1 nM.

With `CCOCCc1cn2c(nc1=O)CN=C(c1c(F)cccc1F)c1c-2ccc(Cl)c1Cl` [Example 24, 8,9-dichloro-7-(2,6-difluorophenyl)-2-(2-ethoxyethyl)-5H-pyrimido[1,2-a][1,4]benzodiazepin-3-one] the “Efficacy (GABA) %” value [1] was 120%, the “Fold increase h-GABA-A α2β2γ1 oocyte @ 30-fold Ki” value [1] was 2.20 and the Ki [2, 3] was 3 nM.

For `CCO/C=C/c1cn2c(nc1=O)CN=C(c1c(F)cccc1F)c1c-2ccc(C(F)(F)F)c1Cl` [Example 25, 8-chloro-7-(2,6-difluorophenyl)-2-[(E)-2-ethoxyvinyl]-9-(trifluoromethyl)-5H-pyrimido[1,2-a][1,4]benzodiazepin-3-one], the “Efficacy (GABA) %” value [1] was 81%, the “Fold increase h-GABA-A α2β2γ1 oocyte @ 30-fold Ki” value [1] was 1.81 and the Ki [2, 3] was 9.4 nM.

`O=c1ccn2c(n1)CN=C(c1ccccc1F)c1c-2ccc(Cl)c1Cl` [Example 1, 8,9-dichloro-7-(2-fluorophenyl)-5H-pyrimido[1,2-a][1,4]benzodiazepin-3-one] was tested, and the “Efficacy (GABA) %” value [1] was 92%, the “Fold increase h-GABA-A α2β2γ1 oocyte @ 30-fold Ki” value [1] was 1.92 and the Ki [2] was 3.8 nM.

With `C[C@@H]1N=C(c2c(F)cccc2F)c2c(ccc(C(F)(F)F)c2Cl)-n2cc(C(=O)NC3CC3)c(=O)nc21` [Example 28, (5S)-8-chloro-N-cyclopropyl-7-(2,6-difluorophenyl)-5-methyl-3-oxo-9-(trifluoromethyl)-5H-pyrimido[1,2-a][1,4]benzodiazepine-2-carboxamide] the “Efficacy (GABA) %” value [1] was 35%, the “Fold increase h-GABA-A α2β2γ1 oocyte @ 30-fold Ki” value [1] was 1.35 and the Ki [2, 3] was 7.4 nM.

For `C[C@@H]1N=C(c2c(F)cccc2F)c2c(ccc(Br)c2Cl)-n2ccc(=O)nc21` [Example 13, (5S)-9-bromo-8-chloro-7-(2,6-difluorophenyl)-5-methyl-5H-pyrimido[1,2-a][1,4]benzodiazepin-3-one], the “Efficacy (GABA) %” value [1] was 70%, the “Fold increase h-GABA-A α2β2γ1 oocyte @ 30-fold Ki” value [1] was 1.7 and the Ki [2] was 1 nM.

With `CCO/C=C/c1cn2c(nc1=O)[C@H](C)N=C(c1c(F)cccc1F)c1c-2ccc(C(F)(F)F)c1Cl` [Example 18, (5S)-8-chloro-7-(2,6-difluorophenyl)-2-[(E)-2-ethoxyvinyl]-5-methyl-9-(trifluoromethyl)-5H-pyrimido[1,2-a][1,4]benzodiazepin-3-one] the “Efficacy (GABA) %” value [1] was 89%, the “Fold increase h-GABA-A α2β2γ1 oocyte @ 30-fold Ki” value [1] was 1.89 and the Ki [2, 3] was 9.7 nM.
